According to patent US20230338534A1, “METHOD” (AUTOLUS LIMITED, priority 2020, published 2023):

System: RQR8+ cells expressing TRBC2 CAR alone
Test: Tacrolimus effect on proliferation of CAR-T cells in 4 day co-culture
Format: cell-based
Details: 20 ng/ml; 4 days co-culture with TRBC2+ targets
Description: In a similar study, cells transduced to express either TRBC2 CAR alone or TRBC2 CAR in combination with a calcineurin mutant (CnB30) were co-cultured for 4 days with TRBC2+ positive targets in the presence or absence of 20 ng/ml of Tacrolimus. […] This was true for cells expressing TRBC2 CAR alone or co-expressing TRBC2 CAR in combination with the calcineurin mutant.

For C=CC[C@@H]1/C=C(\C)C[C@H](C)C[C@H](OC)[C@H]2O[C@@](O)(C(=O)C(=O)N3CCCC[C@H]3C(=O)O[C@H](/C(C)=C/[C@@H]3CC[C@@H](O)[C@H](OC)C3)[C@H](C)[C@@H](O)CC1=O)[C@H](C)C[C@@H]2OC [Tacrolimus, tacrolimus], which “effect on proliferation of cells expressing TRBC2 CAR alone” value is on record?
The value was “inhibits proliferation”.
